Values after ≈ are worked out from the molar mass of the structure shown. Where two headings read alike, the source gives them in different places. Blank lines part the entries; values can stand above or below the molecule they belong to.
Columns and labels:
chicken liver FAS [1] = biological target: T1, chicken liver FAS (Gallus gallus, UniProt P12276); assay: FAS overall reaction, fast-binding inhibition (NADPH decrease at 340 nm); type: biochemical
T1 construct: The purification, storage, and application of the chicken liver FAS were conducted following established procedures; from tissue; host or cells: chicken liver (chickens from Huadu Broiler Corporation, Beijing)
Description: (§1) The FAS employed in this study was sourced from chicken liver, given that the amino acid sequence of chicken FAS shares 63% identity with its human counterpart. The chickens were purchased from Huadu Broiler Corporation, Beijing, China. The purification, storage, and application of the chicken liver FAS were conducted following established procedures. Animal procedures adhered to the Guidelines for the Care and Use of Laboratory Animals as set forth by the Beijing Association for Laboratory Animal Science. […] Concentrations of the enzyme and substrates were determined through absorption measurements, with extinction coefficients being utilized as previously outlined.
(§2) The overall reaction of FAS and the β-ketoacyl reduction facilitated by KR (a functional domain of FAS) were assessed using an Amersham Pharmacia Ultrospec 4300 pro UV-Vis spectrophotometer (GE Healthcare China Company, Beijing, China) at 37 °C by monitoring the decrease of NADPH at 340 nm. The overall reaction mixture comprised potassium phosphate buffer (100 mM, pH 7.0), ethylenediaminetetraacetic acid (EDTA) (1 mM), 1,4-dithiothreitol (DTT) (1 mM), acetyl-CoA (6 µM), malonyl-CoA (12 µM), NADPH (37.5 µM), and chicken liver FAS (10 µg), with a total volume of 2.0 mL. For the KR reaction, the mixture included ethyl acetoacetate (40 mM), NADPH (35 µM), 1 mM of EDTA, and the enzyme (15 µg) in 100 mM of phosphate buffer at pH 7.0, with a total volume of 2.0 mL [41].
(§3) The extent of inhibition was quantified by determining the IC50 value through a plot of residual activity against varying inhibitor concentrations.

[2] = biological target: T2, intracellular FAS activity in LoVo cells (Homo sapiens, UniProt P49327); assay: Intracellular FAS activity assay; type: cell-based
T2 construct: the cells were sonicated at 4 °C and centrifuged at 12,000 rpm for 15 min at 4 °C to obtain particle-free supernatants; endogenous in cells; host or cells: CaCo2, LoVo, SW620
Description: (§4) The human colon cancer cell lines CaCo2, LoVo, and SW620 were purchased from the Type Culture Collection of the Chinese Academy of Sciences (Shanghai, China). The CaCo2 cell line, originating from a human colon adenocarcinoma isolated in the 1970s, undergoes processes of proliferation, confluency, and differentiation during growth. […] LoVo, another cell line isolated in 1971 from the large intestine of a person with grade IV Dukes C colorectal cancer, offers applications in cancer, toxicology, and immuno-oncology research. SW620 cells, obtained from the large intestine of a person Dukes C colorectal cancer patient, are valuable resources for cancer and toxicology investigations. Cells were grown in Dulbecco’s Modified Eagle Medium (DMEM) supplemented with 10% fetal bovine serum (FBS) and were maintained in a humidified atmosphere containing 95% air and 5% CO2 at 37 °C.
(§5) Cells were exposed to LR for 24 h, followed by collection through trypsinization, centrifugation, triple washing, and resuspension in cold PBS. Subsequently, the cells were sonicated at 4 °C and centrifuged at 12,000 rpm for 15 min at 4 °C to obtain particle-free supernatants. The intracellular FAS activity was assessed spectrophotometrically by measuring the reduction in absorbance at 340 nm due to the oxidation of NADPH. A total volume of 500 µL of buffer comprising 50 µL of particle-free supernatant, 25 mM of KH2PO4-K2HPO4 buffer, 0.25 mM of EDTA, 0.25 mM of dithiothreitol, 30 µM of acetyl-CoA, and 350 µM of NADPH (pH 7.0) was monitored at 340 nm for 1 min to establish baseline NADPH oxidation. Following the addition of […] of malonyl-CoA, the reaction was further monitored for 1 min to determine FAS-dependent NADPH oxidation.

[3] = biological target: T3, intracellular FAS activity in CaCo2 cells (Homo sapiens, UniProt P49327); assay: Intracellular FAS activity assay; type: cell-based; conditions: LR 60 µg/mL, 24 h
T3 construct: the cells were sonicated at 4 °C and centrifuged at 12,000 rpm for 15 min at 4 °C to obtain particle-free supernatants; endogenous in cells; host or cells: CaCo2, LoVo, SW620
Description: as §4, §5

[4] = biological target: T4, intracellular FAS activity in SW620 cells (Homo sapiens, UniProt P49327); assay: Intracellular FAS activity assay; type: cell-based
T4 construct: the cells were sonicated at 4 °C and centrifuged at 12,000 rpm for 15 min at 4 °C to obtain particle-free supernatants; endogenous in cells; host or cells: CaCo2, LoVo, SW620
Description: as §4, §5

chicken liver FAS [5] = biological target: T1, chicken liver FAS; assay: Enzyme kinetics study, FAS overall reaction (double reciprocal plots); type: biochemical; conditions: LR 0-15.0 μg/mL
Description: as §2
(§6) Double reciprocal plots were generated for each inhibitor concentration to determine the competitive relationship between the variable substrate and inhibitor concentrations. This study focused on examining fast-binding inhibition.

CaCo2 cells = assay: Cell viability, MTT assay; type: cell-based, human
Description: as §4
(§7) LR was examined to evaluate its inhibition on the proliferation of CaCo2, LoVo, and SW620 cells. CaCo2, LoVo, and SW620 cells were grown in 96-well plates until reaching confluence and were treated with either DMSO (1:1000) or increasing doses of LR for 24 h at 37 °C. Following this, the cell medium was replaced with fresh medium containing 500 µg/mL MTT. After a 4-h incubation at 37 °C, the plates were decanted, and 150 µL of DMSO was added to dissolve the formazan crystals. Subsequently, the plate was analyzed using a microplate spectrophotometer (Multiskan, MK3) (Thermo Fisher Scientific Inc., Waltham, MA, USA) at a wavelength of 492 nm. Each experiment was conducted five times on three separate occasions.

SW620 cells = assay: Cell viability, MTT assay; type: cell-based, human
Description: as §4, §7

LoVo cells = assay: Cell viability, MTT assay; type: cell-based, human; conditions: 24 h
Description: as §4, §7

[6] = biological target: T5, KR (a functional domain of FAS) (Gallus gallus, UniProt P12276); assay: Enzyme kinetics study, KR reaction of FAS (double reciprocal plots); type: biochemical, chicken; conditions: NADPH variable substrate, LR 0-15.0 μg/mL
T5 construct: The purification, storage, and application of the chicken liver FAS were conducted following established procedures; from tissue; host or cells: chicken liver (chickens from Huadu Broiler Corporation, Beijing)
Description: as §2, §6

[7] = biological target: T5, KR (a functional domain of FAS); assay: KR reaction of FAS, fast-binding inhibition (ethyl acetoacetate, NADPH); type: biochemical, chicken
Description: as §1
as §2, with “For the KR reaction, the mixture included ethyl acetoacetate (40 mM), NADPH (35 µM), 1 mM of EDTA, and the enzyme (15 µg) in 100 mM of phosphate buffer at pH 7.0, with a total volume of 2.0 mL [41].” left out
as §3

[8] = fast-binding inhibition, 37 °C, mean ± SD, three experiments
[9] = fast-binding inhibition, 37 °C, mean ± SD, three experiments, read-out: FAS Inhibitory Activity IC50 (converted)
[10] = LR 25 μg/mL + palmitic acid 100 μM, 24 h, versus LR alone

T1 sequence (P12276 whole entry): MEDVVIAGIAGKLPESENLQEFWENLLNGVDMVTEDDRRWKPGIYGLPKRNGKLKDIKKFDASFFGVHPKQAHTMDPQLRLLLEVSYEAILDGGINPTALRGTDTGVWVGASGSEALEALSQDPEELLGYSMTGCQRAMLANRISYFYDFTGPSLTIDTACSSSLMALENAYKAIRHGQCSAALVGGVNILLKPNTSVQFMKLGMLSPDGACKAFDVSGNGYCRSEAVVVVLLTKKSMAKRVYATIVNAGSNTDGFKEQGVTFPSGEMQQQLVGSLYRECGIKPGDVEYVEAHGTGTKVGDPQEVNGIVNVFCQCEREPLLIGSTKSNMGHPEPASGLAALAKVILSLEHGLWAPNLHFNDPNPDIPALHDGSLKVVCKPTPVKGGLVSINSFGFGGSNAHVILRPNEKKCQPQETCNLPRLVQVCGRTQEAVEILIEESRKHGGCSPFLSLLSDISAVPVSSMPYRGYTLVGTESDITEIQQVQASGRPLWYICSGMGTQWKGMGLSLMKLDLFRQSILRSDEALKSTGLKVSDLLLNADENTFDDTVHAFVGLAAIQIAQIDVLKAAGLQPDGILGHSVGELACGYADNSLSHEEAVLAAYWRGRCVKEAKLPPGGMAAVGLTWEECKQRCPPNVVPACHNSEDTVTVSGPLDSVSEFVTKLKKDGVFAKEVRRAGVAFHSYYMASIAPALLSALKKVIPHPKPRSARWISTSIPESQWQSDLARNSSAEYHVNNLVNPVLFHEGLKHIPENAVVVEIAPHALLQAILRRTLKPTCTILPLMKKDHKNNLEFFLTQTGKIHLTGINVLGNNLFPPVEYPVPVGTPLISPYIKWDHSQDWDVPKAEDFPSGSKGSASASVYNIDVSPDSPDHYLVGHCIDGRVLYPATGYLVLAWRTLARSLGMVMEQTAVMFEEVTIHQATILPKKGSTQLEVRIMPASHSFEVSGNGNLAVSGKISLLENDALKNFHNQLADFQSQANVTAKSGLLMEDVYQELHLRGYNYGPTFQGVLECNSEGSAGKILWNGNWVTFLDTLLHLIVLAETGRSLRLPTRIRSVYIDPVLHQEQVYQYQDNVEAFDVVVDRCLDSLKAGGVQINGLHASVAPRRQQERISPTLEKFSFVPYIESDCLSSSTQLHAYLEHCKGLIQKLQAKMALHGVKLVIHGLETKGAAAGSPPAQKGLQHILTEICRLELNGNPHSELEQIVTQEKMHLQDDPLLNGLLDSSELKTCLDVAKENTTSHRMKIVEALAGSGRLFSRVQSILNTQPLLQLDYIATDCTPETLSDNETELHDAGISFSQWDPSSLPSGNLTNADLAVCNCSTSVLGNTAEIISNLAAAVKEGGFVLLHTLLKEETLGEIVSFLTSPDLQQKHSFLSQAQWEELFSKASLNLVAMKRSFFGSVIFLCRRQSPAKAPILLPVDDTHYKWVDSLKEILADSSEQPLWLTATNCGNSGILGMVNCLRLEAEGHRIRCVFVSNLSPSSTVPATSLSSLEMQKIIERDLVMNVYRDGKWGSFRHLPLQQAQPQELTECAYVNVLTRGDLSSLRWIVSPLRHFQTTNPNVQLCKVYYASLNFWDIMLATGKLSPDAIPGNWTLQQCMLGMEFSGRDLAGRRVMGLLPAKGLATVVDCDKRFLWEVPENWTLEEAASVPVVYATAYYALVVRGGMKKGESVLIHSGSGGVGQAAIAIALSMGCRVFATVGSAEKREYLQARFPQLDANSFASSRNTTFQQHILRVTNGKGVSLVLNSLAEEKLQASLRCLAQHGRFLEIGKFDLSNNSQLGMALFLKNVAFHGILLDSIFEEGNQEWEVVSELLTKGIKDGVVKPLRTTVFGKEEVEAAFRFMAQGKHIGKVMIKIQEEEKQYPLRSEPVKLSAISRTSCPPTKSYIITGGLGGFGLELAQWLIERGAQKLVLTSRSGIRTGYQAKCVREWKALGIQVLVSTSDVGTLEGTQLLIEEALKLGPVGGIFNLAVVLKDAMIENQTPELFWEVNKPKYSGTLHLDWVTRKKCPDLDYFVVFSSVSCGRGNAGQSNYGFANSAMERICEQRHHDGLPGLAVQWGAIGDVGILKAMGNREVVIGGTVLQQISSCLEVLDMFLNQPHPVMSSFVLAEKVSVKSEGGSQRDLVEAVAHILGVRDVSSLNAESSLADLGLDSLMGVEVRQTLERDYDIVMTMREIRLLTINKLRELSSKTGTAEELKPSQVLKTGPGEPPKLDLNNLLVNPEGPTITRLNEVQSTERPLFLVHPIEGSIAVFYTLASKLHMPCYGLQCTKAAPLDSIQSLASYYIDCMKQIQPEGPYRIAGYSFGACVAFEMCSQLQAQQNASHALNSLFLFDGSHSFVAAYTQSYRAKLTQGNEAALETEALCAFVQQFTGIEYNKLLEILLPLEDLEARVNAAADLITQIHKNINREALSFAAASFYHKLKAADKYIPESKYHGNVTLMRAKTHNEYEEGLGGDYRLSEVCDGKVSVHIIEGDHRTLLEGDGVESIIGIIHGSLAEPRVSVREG
T5 sequence (P12276 whole entry, the tested form may be a part): as the sequence (P12276 whole entry) above
T2 sequence (P49327 whole entry): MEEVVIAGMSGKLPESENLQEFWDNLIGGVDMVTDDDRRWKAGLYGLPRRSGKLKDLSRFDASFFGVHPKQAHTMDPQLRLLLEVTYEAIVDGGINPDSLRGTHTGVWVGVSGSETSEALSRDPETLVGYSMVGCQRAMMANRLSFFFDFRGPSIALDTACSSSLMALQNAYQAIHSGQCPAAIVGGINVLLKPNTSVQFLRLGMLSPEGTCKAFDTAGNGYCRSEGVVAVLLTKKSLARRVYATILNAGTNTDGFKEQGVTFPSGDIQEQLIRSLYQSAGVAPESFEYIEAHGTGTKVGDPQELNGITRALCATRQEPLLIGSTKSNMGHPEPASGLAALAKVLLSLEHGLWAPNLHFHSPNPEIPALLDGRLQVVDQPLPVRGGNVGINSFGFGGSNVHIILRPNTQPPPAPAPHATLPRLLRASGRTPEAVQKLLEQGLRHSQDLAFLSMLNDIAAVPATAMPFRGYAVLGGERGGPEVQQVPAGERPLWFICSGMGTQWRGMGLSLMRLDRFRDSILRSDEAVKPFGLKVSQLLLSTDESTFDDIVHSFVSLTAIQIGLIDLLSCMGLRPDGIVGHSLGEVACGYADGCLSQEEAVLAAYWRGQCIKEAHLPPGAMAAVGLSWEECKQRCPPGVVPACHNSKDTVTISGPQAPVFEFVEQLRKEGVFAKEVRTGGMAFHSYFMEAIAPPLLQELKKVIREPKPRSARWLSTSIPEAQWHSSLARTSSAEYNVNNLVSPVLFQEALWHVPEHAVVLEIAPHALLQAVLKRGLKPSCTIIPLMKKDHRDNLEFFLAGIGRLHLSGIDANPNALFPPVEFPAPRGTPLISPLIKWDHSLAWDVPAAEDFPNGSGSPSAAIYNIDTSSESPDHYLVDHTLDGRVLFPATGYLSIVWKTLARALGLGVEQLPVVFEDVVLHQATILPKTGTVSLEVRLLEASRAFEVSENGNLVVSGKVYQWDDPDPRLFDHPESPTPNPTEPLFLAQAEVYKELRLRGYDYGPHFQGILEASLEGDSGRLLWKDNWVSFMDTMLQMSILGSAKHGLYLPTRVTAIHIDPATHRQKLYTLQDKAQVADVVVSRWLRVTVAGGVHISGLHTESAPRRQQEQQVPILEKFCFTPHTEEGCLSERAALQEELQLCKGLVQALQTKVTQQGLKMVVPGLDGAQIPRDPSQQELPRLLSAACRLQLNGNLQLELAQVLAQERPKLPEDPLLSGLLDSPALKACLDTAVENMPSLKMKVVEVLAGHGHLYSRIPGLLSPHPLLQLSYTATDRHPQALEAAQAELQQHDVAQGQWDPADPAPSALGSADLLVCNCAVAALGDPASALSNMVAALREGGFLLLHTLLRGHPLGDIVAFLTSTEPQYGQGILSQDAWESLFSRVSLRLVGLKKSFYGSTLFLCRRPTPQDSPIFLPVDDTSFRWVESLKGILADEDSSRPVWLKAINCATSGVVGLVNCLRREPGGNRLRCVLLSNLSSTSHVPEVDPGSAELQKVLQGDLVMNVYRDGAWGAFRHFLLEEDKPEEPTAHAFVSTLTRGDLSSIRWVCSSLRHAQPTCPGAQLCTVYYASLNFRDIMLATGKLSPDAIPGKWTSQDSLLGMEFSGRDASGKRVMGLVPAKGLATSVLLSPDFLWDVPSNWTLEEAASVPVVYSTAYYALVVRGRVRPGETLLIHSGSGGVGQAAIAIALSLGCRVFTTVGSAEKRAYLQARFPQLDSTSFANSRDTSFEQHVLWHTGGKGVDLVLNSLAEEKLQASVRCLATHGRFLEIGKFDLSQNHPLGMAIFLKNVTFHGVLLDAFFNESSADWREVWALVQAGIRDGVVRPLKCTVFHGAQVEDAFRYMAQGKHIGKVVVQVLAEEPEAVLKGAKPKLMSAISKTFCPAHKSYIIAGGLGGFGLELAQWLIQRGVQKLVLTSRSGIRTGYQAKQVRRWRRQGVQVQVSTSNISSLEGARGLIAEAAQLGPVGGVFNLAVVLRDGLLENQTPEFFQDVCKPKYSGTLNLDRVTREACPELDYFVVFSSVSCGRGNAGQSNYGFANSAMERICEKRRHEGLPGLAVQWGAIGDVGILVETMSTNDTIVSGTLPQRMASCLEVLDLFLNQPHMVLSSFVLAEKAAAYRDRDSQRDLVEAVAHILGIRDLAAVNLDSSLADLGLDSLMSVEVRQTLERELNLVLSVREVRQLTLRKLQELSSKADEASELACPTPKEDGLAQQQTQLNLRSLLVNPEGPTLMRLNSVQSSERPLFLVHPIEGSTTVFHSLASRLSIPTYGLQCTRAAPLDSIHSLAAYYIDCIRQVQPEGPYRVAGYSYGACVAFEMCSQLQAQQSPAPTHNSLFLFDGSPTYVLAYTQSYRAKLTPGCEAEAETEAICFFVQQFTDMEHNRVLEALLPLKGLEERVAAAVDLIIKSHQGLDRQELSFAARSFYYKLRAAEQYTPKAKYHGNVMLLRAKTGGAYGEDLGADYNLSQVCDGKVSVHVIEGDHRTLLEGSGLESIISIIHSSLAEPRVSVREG
T4 sequence (P49327 whole entry): as above
T3 sequence (P49327 whole entry): as above

- IC50 (chicken liver FAS [1]; [9]): > 476 µM
SMILES: CC1OC(OC2Cc3c(O)cc(O)cc3OC2c2ccc(O)cc2)C(O)C(O)C1O (stereo not shown) [AR, afzelechin-3-rhamnopyranoside]
- FAS Inhibitory Activity IC50 (chicken liver FAS [1]; [8]): did not show a significant inhibitory effect

SMILES: O=C(O[C@@H]1Cc2c(O)cc(O)cc2O[C@@H]1c1cc(O)c(O)c(O)c1)c1cc(O)c(O)c(O)c1 [EGCG, epigallocatechin gallate, reference compound]
- FAS Inhibitory Activity IC50 (chicken liver FAS [1]; [8]): 24.8 ± 2.2 µg/mL

- IC50 (chicken liver FAS [1]; [9]): > 362 µM
SMILES: COc1cc(C2c3c(cc(OC)c(O)c3OC)CC(CO)C2COC2OCC(O)C(O)C2O)cc(OC)c1O (stereo not drawn) [LA, lyoniresinol-3α-O-β-arabinopyranoside]
- FAS Inhibitory Activity IC50 (chicken liver FAS [1]; [8]): did not show a significant inhibitory effect

- IC50 ([2]; 24 h treatment): 45 µM
- Relative FAS activity ([2]; LR 60 µg/mL, 24 h): under 20%
- Relative FAS activity [3]: under 20%
- IC50 ([4]; 24 h treatment): 38.5 µM
- Relative FAS activity ([4]; LR 60 µg/mL, 24 h): under 20%
- Type of inhibition with respect to acetyl-CoA (chicken liver FAS [5]; acetyl-CoA variable substrate): competitively
- Type of inhibition with respect to malonyl-CoA (chicken liver FAS [5]; malonyl-CoA variable substrate): noncompetitively
- IC50 (CaCo2 cells; Homo sapiens, Caco-2, 24 h, MTT): 28.4 µg/mL (≈ 50.1 µM)
- IC50 (SW620 cells; Homo sapiens, SW-620, 24 h, MTT): 22.1 µg/mL (≈ 39 µM)
- IC50 (LoVo cells; Homo sapiens, MTT): 24.9 µg/mL (≈ 43.9 µM)
- Type of inhibition with respect to NADPH [6]: competitively
- IC50 (chicken liver FAS [1]; [9]): 35.5 µM
- IC50 (chicken liver FAS [1]; same value as 20.1 µg/mL given in molar unit, read-out: FAS inhibition IC50): 35.5 µM
- IC50 [7]: 56.3 µM
SMILES: COc1cc(C2c3c(cc(OC)c(O)c3OC)CC(CO)C2COC2OC(C)C(O)C(O)C2O)cc(OC)c1O (stereo not drawn) [LR, lyoniresinol-3α-O-β-rhamnopyranoside]
- Cell viability with exogenous palmitic acid (rescue) (CaCo2 cells; [10]): restored significantly
- Cell viability with exogenous palmitic acid (rescue) (SW620 cells; [10]): restored significantly
- Cell viability with exogenous palmitic acid (rescue) (LoVo cells; LR 25 μg/mL + palmitic acid 100 μM, versus LR alone): restored significantly
